# Reference: US20250206714A1, “COMPOSITIONS AND METHODS FOR TREATMENT OF INFLAMMATORY DISEASES” (Invea Therapeutics, Inc., priority 2022, published 2025)
# Key:
# CYP 3A4 = CYP 3A4 (Homo sapiens, UniProt P08684); experiment: Metabolic stability in human liver microsomes with CYP 3A4 inhibitor Ketoconazole; conditions: 1 μM + Ketoconazole (20 μM)
# [1] = Metabolic stability assay in human liver microsomes in the presence of specific cytochrome P450 inhibitors (arm without inhibitor, summary statements)
# [2] = Solubility analysis (kinetic method, PBS pH 7.4); format: physicochemical; conditions: phosphate buffered saline, aqueous buffer, kinetic from dmso stock, phosphate buffer saline (pH-7.4)
# Procedure: Seven level calibration standards (i.e., 1, 5, 10, 50, 100, 200 and 300 μM) of the test compound were prepared from 20 mM primary stock solution in DMSO. An aliquot of 198 μL of PBS (pH-7.4) was dispensed into duplicate wells of a multiscreen solubility filter plate. Subsequently, 2 μL of test compound solution from 20 mM primary stock solution was added to give a final concentration of 200 μM, the plate was covered and shaken at 150 rotations per minute for 90 minutes. At the end of 90 minutes, samples were filtered using MultiScreen HTS vacuum Manifold assembly and the filtrates were collected into the acceptor plate. An aliquot of 150 μL of filtrate from the above 96-well acceptor plate were transferred into HPLC vials and analyzed by HPLC-PDA. Solubility was determined by comparing the absorbance of test/reference compound against the respective DMSO calibration curve.
# CYP 1A2 = target: T1, CYP 1A2 (Homo sapiens, UniProt P05177); experiment: Metabolic stability in human liver microsomes with CYP 1A2 inhibitor Furafylline; format: in vitro ADME; conditions: 1 μM + Furafylline (20 μM)
# T1 construct: The experiment was conducted in human liver microsomes; from tissue; host or cells: human liver microsomes
# T1 sequence (P05177 1-516): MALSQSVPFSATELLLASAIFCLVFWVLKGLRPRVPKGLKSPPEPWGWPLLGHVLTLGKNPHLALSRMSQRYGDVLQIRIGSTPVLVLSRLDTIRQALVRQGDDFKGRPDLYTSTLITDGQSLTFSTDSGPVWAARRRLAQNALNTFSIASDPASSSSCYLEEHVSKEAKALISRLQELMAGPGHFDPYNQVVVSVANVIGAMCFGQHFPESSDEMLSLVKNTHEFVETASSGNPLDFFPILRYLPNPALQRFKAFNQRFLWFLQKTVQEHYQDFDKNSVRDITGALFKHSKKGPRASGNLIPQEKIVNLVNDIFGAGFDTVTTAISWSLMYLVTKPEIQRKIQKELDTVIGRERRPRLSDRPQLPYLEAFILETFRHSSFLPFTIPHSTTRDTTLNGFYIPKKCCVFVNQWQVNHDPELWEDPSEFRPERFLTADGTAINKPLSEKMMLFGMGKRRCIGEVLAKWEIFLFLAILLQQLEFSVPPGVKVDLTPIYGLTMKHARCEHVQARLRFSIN
# CYP2D6 = target: T2, CYP2D6 (Homo sapiens, UniProt P10635); experiment: Metabolic stability in human liver microsomes with CYP 2D6 inhibitor Quinidine; format: in vitro ADME; conditions: 1 μM + Quinidine (20 μM)
# T2 construct: The experiment was conducted in human liver microsomes; from tissue; host or cells: human liver microsomes
# T2 sequence (P10635 whole entry): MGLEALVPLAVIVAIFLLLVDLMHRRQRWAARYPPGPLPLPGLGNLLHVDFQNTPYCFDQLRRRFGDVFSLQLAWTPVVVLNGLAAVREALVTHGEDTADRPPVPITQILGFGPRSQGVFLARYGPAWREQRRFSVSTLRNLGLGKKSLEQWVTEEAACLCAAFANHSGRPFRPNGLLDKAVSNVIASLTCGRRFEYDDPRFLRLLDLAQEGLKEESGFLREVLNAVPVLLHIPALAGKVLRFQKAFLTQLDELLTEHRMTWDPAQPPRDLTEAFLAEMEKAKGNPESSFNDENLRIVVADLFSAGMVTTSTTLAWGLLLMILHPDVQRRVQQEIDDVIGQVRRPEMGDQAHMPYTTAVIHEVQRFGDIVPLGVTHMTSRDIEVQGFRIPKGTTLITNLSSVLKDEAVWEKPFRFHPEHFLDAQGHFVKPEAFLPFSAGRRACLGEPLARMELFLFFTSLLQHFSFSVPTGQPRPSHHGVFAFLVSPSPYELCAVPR
# THP-1 cells = experiment: Cell viability by propidium iodide staining; format: cell-based; conditions: at 10 μM; with respect to DMSO control
# Procedure: Human monocytic THP-1 cells were treated with phorbol 12-myristate 13 acetate (PMA) (100 nM) overnight to differentiate monocytic cells into macrophages. Then, after 24 hours of rest, the differentiated cells were incubated with test compounds for 12 hours at concentrations 0.01, 0.1, 1, 10, 30, and 50 μM. Cells were then washed once with PBS and primed with E. coli LPS (0.1 μg/ml) for 4 h followed by stimulation with ATP (5 μM) for an additional 30 min. The cell culture supernatants were then collected and OD values for IL-1β levels were measured by ELISA. The standard curve (OD VS concentration) for IL-1β was also plotted and used to determine the IL-1β concentration for the OD values. The percentage of inhibition of IL-1β was calculated using the formula: […]
# The percentage IL-1β inhibition at different compound concentrations were plotted in a sigmoid curve and IC50 values were interpolated in Graphpad Prism. Cell death was evaluated by propidium iodide staining and OD was measured at 490 nm. Cell viability was estimated with respect to DMSO control.
# [3] = human liver microsomes, 1 μM, no inhibitor
# [4] = human, human liver microsomes, pH 7.4
# CYP 3A4, sequence (P08684 whole entry): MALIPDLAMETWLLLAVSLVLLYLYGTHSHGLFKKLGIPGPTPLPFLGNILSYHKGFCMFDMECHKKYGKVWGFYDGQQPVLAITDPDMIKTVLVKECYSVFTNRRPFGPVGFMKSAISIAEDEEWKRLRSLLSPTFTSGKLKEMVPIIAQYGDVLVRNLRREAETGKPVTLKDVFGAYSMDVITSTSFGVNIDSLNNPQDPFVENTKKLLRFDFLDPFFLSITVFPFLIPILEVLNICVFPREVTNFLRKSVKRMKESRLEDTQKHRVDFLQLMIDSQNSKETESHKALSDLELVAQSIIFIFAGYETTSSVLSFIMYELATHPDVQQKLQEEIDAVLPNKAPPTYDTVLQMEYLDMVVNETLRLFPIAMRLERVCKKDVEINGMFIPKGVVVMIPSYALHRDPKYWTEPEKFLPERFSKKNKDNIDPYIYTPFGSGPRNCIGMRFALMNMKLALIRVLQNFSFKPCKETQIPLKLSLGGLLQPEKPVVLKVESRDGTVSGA
compound,measurement,setting,value
"O=C1Nc2ccccc2N(C(=O)CCl)c2ccc(F)cc21 [Compound 6, 5-(2-chloroacetyl)-2-fluoro-5,10-dihydro-11H-dibenzo[b,e][1,4]diazepin-11-one]",% rem @ 5 min,CYP 3A4,81.9%
same,% rem @ 15 min,CYP 3A4,81.5%
same,% rem @ 30 min,CYP 3A4,61.8%
same,% rem @ 45 min,CYP 3A4,52.9%
same,stability in human liver microsomes (in words),[1]; human liver microsomes,medium to highly stability
same,degradation,"[1]; human liver microsomes, in presence of specific CYP inhibitors",40-45%
same,% rem @ 5 min,[1]; [3],93.5%
same,% rem @ 15 min,[1]; [3],92.9%
same,% rem @ 30 min,[1]; [3],91.3%
same,% rem @ 45 min,[1]; [3],67.8%
same,half-life at 1 µM,[1]; [4],1.6 h
same,microsomal CLint at 1 μM,[1]; [4],14.4 µL/min/mg
same,degradation,"[1]; incubated in human liver microsomes, no inhibitor",~35%
same,solubility at 90 min,[2],> 200 µM
same,% rem @ 5 min,CYP 1A2,96.8%
same,% rem @ 15 min,CYP 1A2,87.7%
same,% rem @ 30 min,CYP 1A2,66.9%
same,% rem @ 45 min,CYP 1A2,63.2%
same,half-life at 1 µM,"CYP 1A2; pH 7.4, with Furafylline 20 μM",1.03 h
same,microsomal CLint at 1 μM,"CYP 1A2; pH 7.4, with Furafylline 20 μM, read-out: mCLint",22.5 µL/min/mg
same,% rem @ 5 min,CYP2D6,80.8%
same,% rem @ 15 min,CYP2D6,67.3%
same,% rem @ 30 min,CYP2D6,57.4%
same,% rem @ 45 min,CYP2D6,60.1%
same,half-life at 1 µM,"CYP2D6; pH 7.4, with quinidine 20 µM",1.07 h
same,microsomal CLint at 1 μM,"CYP2D6; pH 7.4, with quinidine 20 µM, read-out: mCLint",21.6 µL/min/mg
same,cell viability,THP-1 cells,99%
